Measurements published in ChEMBL document CHEMBL5576071, “Structure optimization of Cmpd-15 as negative allosteric modulators for the β2-adrenergic receptor” (Bioorg Med Chem, 2024).

Tests used:
[1] = target: Beta-2 adrenergic receptor (Homo sapiens) (UniProt P07550); assay: Negative allosteric modulation of beta-2 adrenergic receptor (unknown origin) transfected in HEK293 cells assessed as decrease in cAMP accumulation at 50 uM preincubated for 20 mins followed by ISO treatment for 5 mins for by Glo sensor assay relative to 4-((2S)-3-(((S)-3-(3-bromophenyl)-1-(methylamino)-1-oxopropan-2-yl)amino)-2-(2-cyclohexyl-2-phenylacetamido)-3-oxopropyl)benzamide; format: functional, cell-based; conditions: filed as negative allosteric modulator, time 25.0 min
Sequence of Beta-2 adrenergic receptor (Homo sapiens) (P07550 whole entry, looked up): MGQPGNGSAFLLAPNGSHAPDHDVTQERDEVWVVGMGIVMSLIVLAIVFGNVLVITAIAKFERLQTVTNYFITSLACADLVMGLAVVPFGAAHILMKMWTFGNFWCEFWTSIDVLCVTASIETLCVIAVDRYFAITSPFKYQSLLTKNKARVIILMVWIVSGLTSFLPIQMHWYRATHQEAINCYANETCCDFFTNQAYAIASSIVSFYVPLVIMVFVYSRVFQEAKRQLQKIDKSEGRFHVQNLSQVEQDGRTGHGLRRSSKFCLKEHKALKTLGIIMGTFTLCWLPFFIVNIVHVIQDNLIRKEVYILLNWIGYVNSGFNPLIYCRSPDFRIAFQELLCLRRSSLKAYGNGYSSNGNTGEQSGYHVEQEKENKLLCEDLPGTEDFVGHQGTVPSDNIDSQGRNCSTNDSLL

[2] = target: Beta-2 adrenergic receptor (Homo sapiens) (UniProt P07550); assay: Potency index, ratio of 4-((2S)-3-(((S)-3-(3-bromophenyl)-1-(methylamino)-1-oxopropan-2-yl)amino)-2-(2-cyclohexyl-2-phenylacetamido)-3-oxopropyl)benzamide Imax to test compound Imax for negative allosteric modulation of beta-2 adrenergic receptor (unknown origin) transfected in HEK293 cells assessed as decrease in cAMP accumulation at 50 uM preincubated for 20 mins followed by ISO treatment for 5 mins for by Glo sensor assay; format: functional, cell-based; conditions: filed as negative allosteric modulator, time 25.0 min
[3] = Metabolic stability in mouse liver microsomes assessed as half life at 1 uM preincubated for 5 mins followed by NADPH addition measured for 5 to 60 mins by LC-MS/MS analysis; format: ADME, Microsome; conditions: time 10-65 min
[4] = Metabolic stability in mouse liver microsomes assessed as hepatic extraction ratio at 1 uM preincubated for 5 mins followed by NADPH addition measured for 5 to 60 mins by LC-MS/MS analysis; format: ADME, Microsome; conditions: time 10-65 min, read-out: ERH
[5] = Metabolic stability in human liver microsomes assessed as hepatic extraction ratio at 1 uM preincubated for 5 mins followed by NADPH addition measured for 5 to 60 mins by LC-MS/MS analysis; format: ADME, Microsome; conditions: time 10-65 min, read-out: ERH
[6] = Metabolic stability in human liver microsomes assessed as half life at 1 uM preincubated for 5 mins followed by NADPH addition measured for 5 to 60 mins by LC-MS/MS analysis; format: ADME, Microsome; conditions: time 10-65 min

Compound	Imax [1]	Ratio [2]	half-life at 1 µM [3]	hepatic extraction ratio at 1 µM [4]	hepatic extraction ratio at 1 µM [5]	half-life at 1 µM [6]
CNC(=O)[C@H](Cc1cccc(Br)c1)NC(=O)c1cc(-c2ccccc2Cl)nn1Cc1cccc(Br)c1	118%	1.18				
CNC(=O)[C@H](Cc1cccc(Br)c1)NC(=O)c1cc(-c2ccccc2)nn1Cc1ccccc1F	143%	1.43	58.7 min	0.721	0.835	41.5 min
CNC(=O)[C@H](Cc1cccc(Br)c1)NC(=O)c1cc(-c2ccc(F)cc2)nn1Cc1cccc(Br)c1	130%	1.3				
CNC(=O)[C@H](Cc1cccc(Br)c1)NC(=O)c1cc(-c2ccccc2)nn1Cc1cccc(I)c1	125%	1.25				
CNC(=O)[C@H](Cc1cccc(Br)c1)NC(=O)[C@H](Cc1ccc(C(N)=O)cc1)NC(=O)C(c1ccccc1)C1CCCCC1 (stereo not given in full)			2.19 min	0.986	0.993	1.53 min
CNC(=O)[C@H](Cc1cccc(Br)c1)NC(=O)c1cc(-c2cccc(Br)c2)nn1Cc1cccc(Br)c1	100%	1				
CNC(=O)[C@H](Cc1cccc(Br)c1)NC(=O)c1cc(-c2ccc(Br)cc2)nn1Cc1cccc(Br)c1	109%	1.09				
CNC(=O)[C@H](Cc1cccc(Br)c1)NC(=O)c1cc(-c2ccccc2[N+](=O)[O-])nn1Cc1cccc(Br)c1	120%	1.2				
CNC(=O)[C@H](Cc1cccc(Br)c1)NC(=O)c1cc(-c2ccccc2)nn1Cc1cccc(F)c1	133%	1.33				
CNC(=O)[C@H](Cc1cccc(Br)c1)NC(=O)c1cc(-c2ccccc2Br)nn1Cc1cccc(Br)c1	91%	0.91				
CNC(=O)[C@H](Cc1cccc(Br)c1)NC(=O)c1cc(-c2ccccc2)nn1Cc1ccccc1Cl	114%	1.14				
CNC(=O)[C@H](Cc1cccc(Br)c1)NC(=O)c1cc(-c2cccc(Cl)c2)nn1Cc1cccc(Br)c1	127%	1.27				

Now from value to molecule:

Imax [1]	Ratio [2]	half-life at 1 µM [3]	hepatic extraction ratio at 1 µM [4]	hepatic extraction ratio at 1 µM [5]	half-life at 1 µM [6]	Compound
114%	1.14					CNC(=O)[C@H](Cc1cccc(Br)c1)NC(=O)c1cc(-c2ccccc2)nn1Cc1ccc(Cl)cc1
114%	1.14					CNC(=O)[C@H](Cc1cccc(Br)c1)NC(=O)c1cc(-c2ccccc2)nn1Cc1cccc(Cl)c1
114%	1.14					CNC(=O)[C@H](Cc1cccc(Br)c1)NC(=O)c1cc(-c2ccccc2)nn1Cc1ccc(F)cc1
100%	1					CNC(=O)[C@H](Cc1cccc(Br)c1)NC(=O)c1cc(-c2ccccc2)nn1Cc1ccc(C#N)cc1
67%	0.67					CNC(=O)[C@H](Cc1cccc(Br)c1)NC(=O)c1cc(-c2ccccc2)nn1Cc1ccccc1C#N
